The source of these data is patent US20230096051A1, “CGRP ANTIGONISTS USEFUL AS TRACER COMPOUNDS FOR POSITRON EMISSION TOMOGRAPHY” (Eli Lilly and Company, priority 2019, published 2023).

By Kb is commonly meant the affinity of an antagonist, worked out from how it opposes an agonist. As usually defined, the Ki is a measure of affinity in units of concentration, obtained from inhibition or displacement. Read a low Ki as a stronger hold on the target.

Test [1] deals with T1, hCGRP (human calcitonin gene-related peptide) receptor (Homo sapiens, UniProt O60894+Q16602).
T1 construct: Cultured SK-N-MC neuroblastoma cells that endogenously express the hCGRP receptor (ATCC); host or cells: SK-N-MC neuroblastoma cells
Kind of test: Inhibition of cAMP production by CGRP receptor antagonists in SK-N-MC neuroblastoma cells (HTRF). In kind it is cell-based. Particulars: human CGRP 0.8 nM as agonist, Kb estimated as agonist-corrected IC50, read-out: hCGRP Kb ± SD. How it is done: The hCGRP (human calcitonin gene-related peptide) receptor is functionally coupled to the Gas proteins. Stimulation by hCGRP results in an increased synthesis of intracellular cAMP and can be blocked by the addition of receptor antagonists. Receptor activity is thus a reflection of the amount of cAMP present within cells which can be detected using standard in vitro technology.
Cell Culture: Cultured SK-N-MC neuroblastoma cells that endogenously express the hCGRP receptor (ATCC) are grown in Eagle's Minimum essential medium (HYCLONE™) supplemented with 10% heat-inactivated Fetal bovine serum (FBS; GIBCO®), Non-Essential Amino Acids (GIBCO®), 1 mM sodium pyruvate, 2 mM L-glutamine, 100 U/mL of penicillin, and 10 μg/mL of streptomycin to about 70% confluency. After providing fresh medium, the cells are incubated at 37° C. overnight. On the day of the assay, cells are detached using ACCUTASE® (MP Biomedicals), resuspended in assay buffer [Hank's Balanced Salt Solution/Dulbecco's phosphate-buffered saline with […] each of CaCl2 and MgCl2 mixed 1:2, 3.3 mM 4-(2-hydroxyethyl)-1-piperazineethanesulfonic acid, 0.03% bovine serum albumin, and 0.5 mM 1-methyl-3-isobutylxanthine (as inhibitor of cAMP)], and seeded 3-5K/well into 384-well, poly-D-lysine coated white plates (BD Biosciences).
Inhibition of cAMP Production: For dose-response studies, compounds are serially diluted 1:3 in dimethyl sulfoxide and then 1:10 into assay buffer. […]
Data Analysis: The amount of intracellular cAMP is quantitated using HTRF technology (Cisbio) as per vendor instructions. […] The HTRF signal is immediately detected using an ENVISION® plate reader (Perkin-Elmer) to calculate the ratio of fluorescence at […]. […] Relative […] values are calculated from the top-bottom range of the concentration response curve using a four-parameter logistic curve fitting program (ACTIVITYBASE® v5.3.1.22 or GENEDATA SCREENER® v12.0.4), and Kb values are estimated as agonist-corrected IC50 values using the equation: […]

In test [2] the target is T2, human CGRP receptor heterodimer (Homo sapiens, UniProt O60894+Q16602).
T2 construct: Human SK-N-MC neuroblastoma cells, endogenously expressing the human CGRP receptor, are expanded in culture flasks; host or cells: P2 membranes of SK-N-MC neuroblastoma cells
Kind of test: Competition filtration binding with [3H]BIBN-4096 on SK-N-MC cell membranes. Particulars: [3H]BIBN-4096 130 pM, mean. An excerpt:
The equilibrium affinity constant (Ki) at the human CGRP receptor heterodimer may be determined using standard competition filtration binding methods with membranes prepared from cultured SK-N-MC neuroblastoma cells (ATCC) and a high-affinity CGRP receptor antagonist.
Membrane Production: Human SK-N-MC neuroblastoma cells, endogenously expressing the human CGRP receptor, are expanded in culture flasks (Corning, T225) using growth media containing Eagles's Minimum Essential Media (HyClone™) supplemented with 10% heat-inactivated fetal bovine serum (GIBCO®). When cell monolayers achieve a level of 70-80% confluence, they are dissociated from the culture flasks using TrypLE™ cell dissociation media (ThermoFisher Scientific). Dissociated cells are pelleted by centrifugation at 300×g to remove the growth and dissociation media. Centrifuged cell pellets are flash frozen in liquid nitrogen (−320° F.) for 30 sec and stored frozen at −80° C. until the subsequent membrane preparation.
A membrane preparation P2 pellet (second pellet from centrifugation procedure) is generated from harvested SK-N-MC frozen cultured cell pellets by diluting these cells on ice into 20 mM Tris-HCl buffer, pH 7.4, containing protease inhibitors (Pierce). Suspended cells are Dounce homogenized on ice and centrifuged at low speed (1000×g for 20 min at 4° C.) to remove cellular organelles and debris (P1 pellet). The supernatant, containing the soluble membrane fraction, is collected and subjected to a high speed centrifugation step (25,000×g for 1 hr at 4° C.) to isolate the resultant P2 membrane pellet. […] Protein concentration is determined using the Bradford Protein Assay (ThermoFisher Scientific). […]
Data Analysis: Bound radioactivity may be counted using a MicroBeta® Trilux Scintillation Counter (PerkinElmer®). […] Relative IC50 values are calculated using a four-parameter logistic curve fitting program (GraphPad Prism v8.3.0). Equilibrium dissociation binding constants (Ki) for the compounds are calculated from the following equation: […]

Take `Cc1cc(N2CC(F)C2)cc(OCc2ccc([C@@H](C)[C@@]3(C)C(=O)NC[C@@H]3CF)cc2)n1` [Example 3, (3R,4R)-3-[(1R)-1-[4-[[4-(3-fluoroazetidin-1-yl)-6-methyl-2-pyridyl]oxymethyl]phenyl]ethyl]-4-(fluoromethyl)-3-methyl-pyrrolidin-2-one]: in test [1], the Kb is 0.1 ± 0.02 nM. This compound also yielded a Ki in test [2] of 0.93 nM.
Consider `Cc1cc(N2CCC2)cc(OCc2ccc([C@@H](C)[C@@]3(C)C(=O)NC[C@@H]3CF)cc2)n1` [Example 1, (3R,4R)-3-[(1R)-1-[4-[[4-(azetidin-1-yl)-6-methyl-2-pyridyl]oxymethyl]phenyl]ethyl]-4-(fluoromethyl)-3-methyl-pyrrolidin-2-one], for which the Kb in test [1] was 0.08 ± 0.01 nM. Moreover, the Ki in test [2] is 0.35 nM.
Take `Cc1cc(N2CC(F)C2)cc(OCc2ccc([C@@H](C)[C@@]3(C)C(=O)NC[C@@H]3C)cc2)n1` [Example 2, (3R,4R)-3-[(1R)-1-[4-[[4-(3-fluoroazetidin-1-yl)-6-methyl-2-pyridyl]oxymethyl]phenyl]ethyl]-3,4-dimethyl-pyrrolidin-2-one]: the antagonist dissociation constant (Kb) in test [1] was 0.14 ± 0.02 nM. In test [2], the affinity corresponds to a Ki of 0.98 nM.
